{"source": "patent US6737383B1", "about": "“Herbicidal oxadiazolidines” (priority 1999, dated 2004)", "key": {"bedstraw": {"test_system": "bedstraw", "assay": "Test B pre/postemergence bedstraw", "format": "in vivo, Galium aparine", "procedure,_shortened": "(§1)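 Response is a visual 0-to-10 score relative to untreated plants, where 0 means no effect and 10 means complete control, taken twelve to sixteen days after application. Treatments went onto soil at planting and onto foliage of 1- to 4-leaf plants, using a surfactant-containing non-phytotoxic solvent.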"}, "blackgrass": {"test_system": "blackgrass", "assay": "Test B pre/postemergence blackgrass", "format": "in vivo, Alopecurus myosuroides", "procedure,_shortened": "as §1"}, "surinam grass": {"test_system": "surinam grass", "assay": "Test B pre/postemergence surinam grass", "format": "in vivo, Brachiaria decumbens", "procedure,_shortened": "as §1"}, "cocklebur": {"test_system": "cocklebur", "assay": "Test B pre/postemergence cocklebur", "format": "in vivo, Xanthium strumarium", "procedure,_shortened": "as §1"}, "corn": {"test_system": "corn", "assay": "Test B pre/postemergence corn", "format": "in vivo, Zea mays", "procedure,_shortened": "as §1"}, "crabgrass": {"test_system": "crabgrass", "assay": "Test B pre/postemergence crabgrass", "format": "in vivo, Digitaria sanguinalis", "procedure,_shortened": "as §1"}, "morningglory": {"test_system": "morningglory", "assay": "Test B pre/postemergence morningglory", "format": "in vivo, Ipomoea hederacea", "procedure,_shortened": "as §1"}, "pigweed": {"test_system": "pigweed", "assay": "Test B pre/postemergence pigweed", "format": "in vivo, Amaranthus retroflexus", "procedure,_shortened": "as §1"}, "[1]": {"conditions": "Preemergence, Rate 62 g/ha, scale of 0 to 10 where 0 is no effect and 10 is complete control"}, "[2]": {"conditions": "Preemergence, Rate 125 g/ha, 0 is no effect, 10 is complete control"}, "[3]": {"conditions": "Preemergence, Rate 250 g/ha, scale 0 to 10, 0 is no effect, 10 is complete control"}, "[4]": {"conditions": "Preemergence, Rate 500 g/ha, scale 0 to 10 (0 no effect, 10 complete control)"}, "[5]": {"conditions": "Rate 62 g/ha, Postemergence, scale of 0 to 10 where 0 is no effect and 10 is complete control"}, "[6]": {"conditions": "Rate 125 g/ha, Postemergence, scale 0 to 10"}, "[7]": {"conditions": "Rate 500 g/ha, Postemergence, scale 0 to 10"}, "[8]": {"conditions": "Rate 1000 g/ha, Preemergence, scale 0 to 10 (0 no effect, 10 complete control)"}, "[9]": {"conditions": "Rate 2000 g/ha, Preemergence, scale 0 to 10"}, "[10]": {"conditions": "Postemergence, Rate 1000 g/ha, scale 0 to 10 (0 no effect, 10 complete control)"}, "[11]": {"conditions": "Rate 2000 g/ha, Postemergence, scale 0 to 10"}}}
{"smiles": "CCN(C(=O)n1oc(=O)n(N(C)c2ccccc2)c1=O)C1CCCCC1", "note": "[Compound 183]", "values": [{"measurement": "Bedstraw plant response rating", "setting": "bedstraw; [1]", "result": 0}, {"measurement": "Bedstraw plant response rating (0 to 10 scale)", "setting": "bedstraw; [2]", "result": 0}, {"measurement": "Bedstraw plant response rating", "setting": "bedstraw; [3]", "result": 0}, {"measurement": "Bedstraw plant response rating", "setting": "bedstraw; [4]", "result": 7}, {"measurement": "Bedstraw plant response rating", "setting": "bedstraw; [5]", "result": 0}, {"measurement": "Bedstraw plant response rating", "setting": "bedstraw; [6]", "result": 0}, {"measurement": "Plant response rating (0 to 10; 0 is no effect, 10 is complete control), Bedstraw", "setting": "bedstraw; Rate 250 g/ha, Postemergence", "result": 7}, {"measurement": "Bedstraw plant response rating", "setting": "bedstraw; [7]", "result": 3}, {"measurement": "Plant response rating, Bedstraw", "setting": "bedstraw; [8]", "result": 7}, {"measurement": "Bedstraw plant response rating", "setting": "bedstraw; [9]", "result": 10}, {"measurement": "Blackgrass plant response rating", "setting": "blackgrass; [10]", "result": 0}, {"measurement": "Blackgrass plant response rating", "setting": "blackgrass; [1]", "result": 0}, {"measurement": "Blackgrass plant response rating (0 to 10 scale)", "setting": "blackgrass; [2]", "result": 0}, {"measurement": "Blackgrass plant response rating", "setting": "blackgrass; [3]", "result": 0}, {"measurement": "Blackgrass plant response rating", "setting": "blackgrass; [4]", "result": 0}, {"measurement": "Blackgrass plant response rating", "setting": "blackgrass; [5]", "result": 0}, {"measurement": "Blackgrass plant response rating", "setting": "blackgrass; [6]", "result": 0}, {"measurement": "Plant response rating (0 to 10; 0 is no effect, 10 is complete control), Blackgrass", "setting": "blackgrass; Rate 250 g/ha, Postemergence", "result": 0}, {"measurement": "Blackgrass plant response rating", "setting": "blackgrass; [7]", "result": 0}, {"measurement": "Plant response rating, Blackgrass", "setting": "blackgrass; [8]", "result": 1}, {"measurement": "Blackgrass plant response rating", "setting": "blackgrass; [11]", "result": 0}, {"measurement": "Blackgrass plant response rating", "setting": "blackgrass; [9]", "result": 2}, {"measurement": "B. signalgrass plant response rating", "setting": "surinam grass; [10]", "result": 0}, {"measurement": "B. signalgrass plant response rating", "setting": "surinam grass; [1]", "result": 0}, {"measurement": "B. signalgrass plant response rating (0 to 10 scale)", "setting": "surinam grass; [2]", "result": 0}, {"measurement": "B. signalgrass plant response rating", "setting": "surinam grass; [3]", "result": 4}, {"measurement": "B. signalgrass plant response rating", "setting": "surinam grass; [4]", "result": 4}, {"measurement": "B. signalgrass plant response rating", "setting": "surinam grass; [5]", "result": 0}, {"measurement": "B. signalgrass plant response rating", "setting": "surinam grass; Rate 125 g/ha, Postemergence, scale 0 (no effect) to 10 (complete control)", "result": 0}, {"measurement": "Plant response rating, B. signalgrass", "setting": "surinam grass; Rate 250 g/ha, Postemergence, scale 0 to 10, 0 is no effect, 10 is complete control", "result": 0}, {"measurement": "B. signalgrass plant response rating", "setting": "surinam grass; Rate 500 g/ha, Postemergence, scale 0 to 10, 0 no effect, 10 complete control", "result": 0}, {"measurement": "Plant response rating, B. signalgrass", "setting": "surinam grass; [8]", "result": 0}, {"measurement": "B. signalgrass plant response rating", "setting": "surinam grass; [11]", "result": 0}, {"measurement": "B. signalgrass plant response rating", "setting": "surinam grass; [9]", "result": 2}, {"measurement": "Cocklebur plant response rating", "setting": "cocklebur; [10]", "result": 0}, {"measurement": "Cocklebur plant response rating", "setting": "cocklebur; [1]", "result": 0}, {"measurement": "Cocklebur plant response rating (0 to 10 scale)", "setting": "cocklebur; [2]", "result": 0}, {"measurement": "Cocklebur plant response rating", "setting": "cocklebur; [3]", "result": 0}, {"measurement": "Cocklebur plant response rating", "setting": "cocklebur; [4]", "result": 0}, {"measurement": "Cocklebur plant response rating", "setting": "cocklebur; [5]", "result": 0}, {"measurement": "Cocklebur plant response rating", "setting": "cocklebur; [6]", "result": 0}, {"measurement": "Plant response rating (0 to 10; 0 is no effect, 10 is complete control), Cocklebur", "setting": "cocklebur; Rate 250 g/ha, Postemergence", "result": 0}, {"measurement": "Cocklebur plant response rating", "setting": "cocklebur; [7]", "result": 0}, {"measurement": "Plant response rating, Cocklebur", "setting": "cocklebur; [8]", "result": 0}, {"measurement": "Cocklebur plant response rating", "setting": "cocklebur; [11]", "result": 2}, {"measurement": "Cocklebur plant response rating", "setting": "cocklebur; [9]", "result": 0}, {"measurement": "Corn plant response rating", "setting": "corn; [10]", "result": 0}, {"measurement": "Corn plant response rating", "setting": "corn; [1]", "result": 0}, {"measurement": "Corn plant response rating (0 to 10 scale)", "setting": "corn; [2]", "result": 0}, {"measurement": "Corn plant response rating", "setting": "corn; [3]", "result": 0}, {"measurement": "Corn plant response rating", "setting": "corn; [4]", "result": 0}, {"measurement": "Corn plant response rating", "setting": "corn; [5]", "result": 0}, {"measurement": "Corn plant response rating", "setting": "corn; [6]", "result": 0}, {"measurement": "Plant response rating (0 to 10; 0 is no effect, 10 is complete control), Corn", "setting": "corn; Rate 250 g/ha, Postemergence", "result": 0}, {"measurement": "Corn plant response rating", "setting": "corn; [7]", "result": 0}, {"measurement": "Plant response rating, Corn", "setting": "corn; [8]", "result": 0}, {"measurement": "Corn plant response rating", "setting": "corn; [11]", "result": 0}, {"measurement": "Corn plant response rating", "setting": "corn; [9]", "result": 0}, {"measurement": "Crabgrass plant response rating", "setting": "crabgrass; [10]", "result": 0}, {"measurement": "Crabgrass plant response rating", "setting": "crabgrass; [1]", "result": 0}, {"measurement": "Crabgrass plant response rating (0 to 10 scale)", "setting": "crabgrass; [2]", "result": 0}, {"measurement": "Crabgrass plant response rating", "setting": "crabgrass; [3]", "result": 0}, {"measurement": "Crabgrass plant response rating", "setting": "crabgrass; [4]", "result": 3}, {"measurement": "Crabgrass plant response rating", "setting": "crabgrass; [5]", "result": 0}, {"measurement": "Crabgrass plant response rating", "setting": "crabgrass; [6]", "result": 0}, {"measurement": "Plant response rating (0 to 10; 0 is no effect, 10 is complete control), Crabgrass", "setting": "crabgrass; Rate 250 g/ha, Postemergence", "result": 0}, {"measurement": "Crabgrass plant response rating", "setting": "crabgrass; [7]", "result": 0}, {"measurement": "Plant response rating, Crabgrass", "setting": "crabgrass; [8]", "result": 0}, {"measurement": "Crabgrass plant response rating", "setting": "crabgrass; [11]", "result": 0}, {"measurement": "Crabgrass plant response rating", "setting": "crabgrass; [9]", "result": 2}, {"measurement": "Morningglory plant response rating", "setting": "morningglory; [10]", "result": 4}, {"measurement": "Morningglory plant response rating", "setting": "morningglory; [1]", "result": 0}, {"measurement": "Morningglory plant response rating (0 to 10 scale)", "setting": "morningglory; [2]", "result": 0}, {"measurement": "Morningglory plant response rating", "setting": "morningglory; [3]", "result": 0}, {"measurement": "Morningglory plant response rating", "setting": "morningglory; [4]", "result": 0}, {"measurement": "Morningglory plant response rating", "setting": "morningglory; [5]", "result": 0}, {"measurement": "Morningglory plant response rating", "setting": "morningglory; [6]", "result": 0}, {"measurement": "Plant response rating (0 to 10; 0 is no effect, 10 is complete control), Morningglory", "setting": "morningglory; Rate 250 g/ha, Postemergence", "result": 1}, {"measurement": "Morningglory plant response rating", "setting": "morningglory; [7]", "result": 2}, {"measurement": "Plant response rating, Morningglory", "setting": "morningglory; [8]", "result": 0}, {"measurement": "Morningglory plant response rating", "setting": "morningglory; [11]", "result": 5}, {"measurement": "Morningglory plant response rating", "setting": "morningglory; [9]", "result": 0}, {"measurement": "Redroot pigweed plant response rating", "setting": "pigweed; [10]", "result": 0}, {"measurement": "Redroot pigweed plant response rating", "setting": "pigweed; [1]", "result": 0}, {"measurement": "Redroot pigweed plant response rating (0 to 10 scale)", "setting": "pigweed; [2]", "result": 0}, {"measurement": "Redroot pigweed plant response rating", "setting": "pigweed; [3]", "result": 0}]}
